In patent US20140120087A1, “TRIAZOLOPYRIDINES” (BAYER INTELLECTUAL PROPERTY GMBH, priority 2011, published 2014):

Assays:
[1] = biological target: T1, Mps-1 kinase (Homo sapiens, UniProt P33981); test: Mps-1 kinase assay with 2 mM ATP (TR-FRET)
T1 sequence (P33981 1-857): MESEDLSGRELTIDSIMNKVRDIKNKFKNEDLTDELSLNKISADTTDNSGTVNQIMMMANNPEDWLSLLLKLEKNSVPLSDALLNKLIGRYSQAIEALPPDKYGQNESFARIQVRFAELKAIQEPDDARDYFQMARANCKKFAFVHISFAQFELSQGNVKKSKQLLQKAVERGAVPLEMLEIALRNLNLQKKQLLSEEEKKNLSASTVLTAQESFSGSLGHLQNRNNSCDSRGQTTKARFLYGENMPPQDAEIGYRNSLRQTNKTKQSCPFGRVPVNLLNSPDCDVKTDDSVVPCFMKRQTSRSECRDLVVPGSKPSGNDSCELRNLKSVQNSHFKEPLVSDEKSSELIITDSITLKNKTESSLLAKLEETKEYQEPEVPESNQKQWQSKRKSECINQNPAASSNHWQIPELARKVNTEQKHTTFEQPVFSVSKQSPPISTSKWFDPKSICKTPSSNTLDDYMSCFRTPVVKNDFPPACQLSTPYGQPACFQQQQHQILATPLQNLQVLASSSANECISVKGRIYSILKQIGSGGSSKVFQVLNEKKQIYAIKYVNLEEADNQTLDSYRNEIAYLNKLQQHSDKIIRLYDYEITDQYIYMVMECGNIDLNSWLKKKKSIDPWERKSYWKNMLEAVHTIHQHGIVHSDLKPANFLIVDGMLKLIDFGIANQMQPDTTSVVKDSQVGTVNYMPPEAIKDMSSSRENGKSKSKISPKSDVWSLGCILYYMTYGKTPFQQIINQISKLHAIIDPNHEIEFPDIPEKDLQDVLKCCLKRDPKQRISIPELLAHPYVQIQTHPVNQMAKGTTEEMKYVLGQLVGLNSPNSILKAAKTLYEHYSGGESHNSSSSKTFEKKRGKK

[2] = biological target: T1, Mps-1 kinase; test: Mps-1 kinase assay with 10 μM ATP (TR-FRET)

Structure (SMILES)	IC50 [1]	IC50 [2]
CS(=O)(=O)c1ccc(Nc2nc3ccc(-c4ccc(NC(=O)Cc5ccc(F)cc5)cc4)cn3n2)c(OC(F)F)c1 [Example 01.35, N-[4-(2-{[2-(difluoromethoxy)-4-(methylsulfonyl)phenyl]amino}[1,2,4]-triazolo[1,5-α]pyridin-6-yl)phenyl]-2-(4-fluorophenyl)acetamide]	1.2 nM	≤ 1 nM
Cc1cc(N(C)C)ccc1Nc1nc2ccc(-c3ccc(NC(=O)Cc4ccc(F)cc4)cc3)cn2n1 [Example 12.36, N-[4-(2-{[4-(dimethylamino)-2-methylphenyl]-amino}[1,2,4]triazolo[1,5-a]pyridin-6-yl)phenyl]-2-(4-fluorophenyl)acetamide]	3.5 nM	≤ 1 nM
C[S@@+]([O-])c1ccc(Nc2nc3ccc(-c4ccc(NC(=O)Cc5ccc(F)cc5)cc4)cn3n2)c(OCC(F)(F)F)c1 (stereo in doubt) [Example 12.24, 2-(4-fluorophenyl)-N-[4-(2-{[4-(methylsulfinyl)-2-(2,2,2-trifluoroethoxy)-phenyl]amino}[1,2,4]-triazolo[1,5-a]pyridin-6-yl)phenyl]acetamide]	≤ 1 nM	≤ 1 nM
COc1cc(C(=O)NCC(F)(F)F)ccc1Nc1nc2ccc(-c3ccc(NC(=O)Cc4ccc(F)cc4)cc3)cn2n1 [Example 01.31, 4-{[6-(4-{[(4-fluorophenyl)acetyl]amino}phenyl)[1,2,4]triazolo[1,5-α]-pyridin-2-yl]amino}-3-methoxy-N-(2,2,2-trifluoroethyl)benzamide]	5 nM	≤ 1 nM
COc1cc(S(=O)(=O)NC(C)(C)C)ccc1Nc1nc2ccc(-c3ccc(NC(=O)Cc4ccc(F)cc4)cc3)cn2n1 [Example 12.15, N-[4-(2-{[4-(tert-butyl-sulfamoyl)-2-methoxy-phenyl]amino}[1,2,4]-triazolo[1,5-a]pyridin-6-yl)phenyl]-2-(4-fluoro-phenyl)acetamide]	1.6 nM	≤ 1 nM
COc1cc(S(C)(=O)=O)c(F)cc1Nc1nc2ccc(-c3ccc(NC(=O)Cc4ccc(F)cc4)cc3)cn2n1 [Example 12.12, N-[4-(2-{[5-fluoro-2-methoxy-4-(methylsulfonyl)-phenyl]amino}[1,2,4]-triazolo[1,5-a]pyridin-6-yl)phenyl]-2-(4-fluoro-phenyl)acetamide]	13 nM	≤ 1 nM
COc1cc([S@@+](C)[O-])ccc1Nc1nc2ccc(-c3ccc(NC(=O)Cc4ccc(F)cc4)cc3)cn2n1 (stereo in doubt) [Example 12.13, 2-(4-fluorophenyl)-N-[4-(2-{[2-methoxy-4-(methyl-sulfinyl)phenyl]amino}-[1,2,4]triazolo[1,5-a]pyridin-6-yl)phenyl]acetamide]	≤ 1 nM	≤ 1 nM
COc1cc(C(=O)NCCN(C)C)ccc1Nc1nc2ccc(-c3ccc(C(=O)NCc4ccc(F)cc4)cc3)cn2n1 [Example 12.48, N-[2-(dimethylamino)ethyl]-4-[(6-{4-[(4-fluorobenzyl)-carbamoyl]phenyl}[1,2,4]triazolo [1,5-a]pyridin-2-yl)amino]-3-methoxy-benzamide]	1.3 nM	≤ 1 nM
CCNC(=O)c1ccc(Nc2nc3ccc(-c4ccc(C(=O)NCc5ccc(F)cc5)cc4)cn3n2)c(C)c1 [Example 12.64, N-ethyl-4-[(6-{4-[(4-fluoro-benzyl)carbamoyl]phenyl}-[1,2,4]triazolo[1,5-a]pyridin-2-yl)amino]-3-methyl-benzamide]	1.6 nM	≤ 1 nM
COc1cc(C(=O)NCCF)ccc1Nc1nc2ccc(-c3ccc(NC(=O)Cc4ccc(F)cc4)cc3)cn2n1 [Example 12.05, N-(2-fluoroethyl)-4-{[6-(4-{[(4-fluorophenyl)acetyl]-amino}phenyl)[1,2,4]-triazolo[1,5-a]pyridin-2-yl]amino}-3-methoxy-benzamide]	≤ 1 nM	≤ 1 nM
COc1cc(C(=O)NCCS(C)(=O)=O)ccc1Nc1nc2ccc(-c3ccc(NC(=O)Cc4ccc(F)cc4)cc3)cn2n1 [Example 12.03]	≤ 1 nM	≤ 1 nM
Cc1cc(NS(C)(=O)=O)ccc1Nc1nc2ccc(-c3ccc(NC(=O)Cc4ccc(F)cc4)cc3)cn2n1 [Example 12.34, 2-(4-fluorophenyl)-N-{4-[2-({2-methyl-4-[(methyl-sulfonyl)amino]phenyl}-amino)[1,2,4]triazolo[1,5-a]pyridin-6-yl]phenyl}-acetamide]	6.6 nM	≤ 1 nM
CCOc1cc(C(=O)NCCN(C)C)ccc1Nc1nc2ccc(-c3ccc(NC(=O)Cc4ccc(F)cc4)cc3)cn2n1 [Example 12.20, N-[2-(dimethylamino)ethyl]-3-ethoxy-4-{[6-(4-{[(4-fluorophenyl)acetyl]amino}-phenyl)[1,2,4]triazolo[1,5-a]pyridin-2-yl]amino}-benzamide]	≤ 1 nM	≤ 1 nM
COc1cc(C(=O)N(C)C)ccc1Nc1nc2ccc(-c3ccc(C(=O)NCc4ccc(F)cc4)cc3)cn2n1 [Example 12.46, 4-[(6-{4-[(4-fluorobenzyl)-carbamoyl]phenyl}[1,2,4]triazolo [1,5-a]pyridin-2-yl)-amino]-3-methoxy-N,N-dimethylbenzamide]	3.5 nM	≤ 1 nM
CN(C)CCNC(=O)c1ccc(Nc2nc3ccc(-c4ccc(C(=O)NCc5ccc(F)cc5)cc4)cn3n2)c(OCC(F)(F)F)c1 [Example 12.58, N-[2-(dimethylamino)ethyl]-4-[(6-{4-[(4-fluorobenzyl)-carbamoyl]phenyl}[1,2,4]triazolo [1,5-a]pyridin-2-yl)-amino]-3-(2,2,2-trifluoro-ethoxy)benzamide]	≤ 1 nM	≤ 1 nM
CC(C)S(=O)(=O)c1ccc(Nc2nc3ccc(-c4ccc(NC(=O)Cc5ccc(F)cc5)cc4)cn3n2)c(OC(F)F)c1 [Example 12.26, N-[4-(2-{[2-(difluoro-methoxy)-4-(propan-2-ylsulfonyl)phenyl]amino}-[1,2,4]triazolo[1,5-a]pyridin-6-yl)phenyl]-2-(4-fluorophenyl)acetamide]	1.2 nM	≤ 1 nM
COc1cc(C(=O)NCC(F)(F)F)ccc1Nc1nc2ccc(-c3ccc(C(=O)NCc4ccc(F)cc4F)cc3)cn2n1 [Example 12.79, 4-[(6-{4-[(2,4-difluoro-benzyl)carbamoyl]phenyl}-[1,2,4]triazolo[1,5-a]pyridin-2-yl)amino]-3-methoxy-N-(2,2,2-trifluoro-ethyl)benzamide]	23 nM	≤ 1 nM
COc1cc(C(=O)NCC(F)F)ccc1Nc1nc2ccc(-c3ccc(C(=O)NCc4ccc(F)cc4)cc3)cn2n1 [Example 12.47, N-(2,2-difluoroethyl)-4-[(6-{4-[(4-fluorobenzyl)-carbamoyl]phenyl}[1,2,4]triazolo [1,5-a]pyridin-2-yl)amino]-3-methoxy-benzamide]	2.4 nM	≤ 1 nM
COc1cc(C(=O)N(C)CC(F)(F)F)ccc1Nc1nc2ccc(-c3ccc(NC(=O)Cc4ccc(F)cc4)cc3)cn2n1 [Example 12.09, 4-{[6-(4-{[(4-fluorophenyl)-acetyl]amino}phenyl)[1,2,4]triazolo[1,5-a]pyridin-2-yl]amino}-3-methoxy-N-methyl-N-(2,2,2-trifluoro-ethyl)benzamide]	2.5 nM	≤ 1 nM
CNC(=O)c1ccc(Nc2nc3ccc(-c4ccc(NC(=O)Cc5ccc(F)cc5)cc4)cn3n2)c(OC)c1 [Example 01.30, 4-{[6-(4-{[(4-fluorophenyl)acetyl]amino}phenyl)[1,2,4]triazolo[1,5-α]-pyridin-2-yl]amino}-3-methoxy-N-methylbenzamide]	≤ 1 nM	≤ 1 nM
CCOc1cc(S(C)(=O)=O)ccc1Nc1nc2ccc(-c3ccc(C(=O)NCc4ccc(F)cc4)cc3)cn2n1 [Example 02.25, 4-(2-{[2-ethoxy-4-(methylsulfonyl)phenyl]amino}[1,2,4]triazolo[1,5-α]-pyridin-6-yl)-N-(4-fluorobenzyl)benzamide]	3.3 nM	≤ 1 nM
COc1cc(S(C)(=N)=O)ccc1Nc1nc2ccc(-c3ccc(NC(=O)Cc4ccc(F)cc4)cc3)cn2n1 (stereo not drawn) [Example 12.82, 2-(4-fluorophenyl)-N-[4-(2-{[2-methoxy-4-(S-methylsulfonimidoyl)phenyl]-amino}[1,2,4]triazolo[1,5-α]pyridin-6-yl)phenyl]acetamide]	≤ 1 nM	≤ 1 nM
